These results are taken from patent publication US20230374015A1, “INHIBITORS OF FIBROBLAST GROWTH FACTOR RECEPTOR KINASES” (Kinnate Biopharma Inc., priority 2020, published 2023).

For this assay, the target named is FGFR2 (Homo sapiens, UniProt P21802). Kind of assay: FGFR2 Kinase Protocol - Condition 2 (Reaction Biology HotSpot radiometric kinase assay, no preincubation). To be noted: poly[Glu:Tyr] (4:1) 0.2 mg/ml, ATP 100 microM, 2 hr room temperature. The class given is biochemical. The procedure, abridged:
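Radiometric HotSpot format: FGFR2 (wildtype or V564F) with poly[Glu:Tyr] (4:1) at 0.2 mg/ml in HEPES pH 7.5 buffer with 1% DMSO; ATP plus [γ33P]ATP at 100 µM total, added without preincubation. Reactions ran 2 hr at room temperature, then filter-bound. IC50 from 10-dose, 3-fold series versus DMSO control.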

Molecules are shown by their SMILES.

Chain of FGFR2 (P21802 22-821): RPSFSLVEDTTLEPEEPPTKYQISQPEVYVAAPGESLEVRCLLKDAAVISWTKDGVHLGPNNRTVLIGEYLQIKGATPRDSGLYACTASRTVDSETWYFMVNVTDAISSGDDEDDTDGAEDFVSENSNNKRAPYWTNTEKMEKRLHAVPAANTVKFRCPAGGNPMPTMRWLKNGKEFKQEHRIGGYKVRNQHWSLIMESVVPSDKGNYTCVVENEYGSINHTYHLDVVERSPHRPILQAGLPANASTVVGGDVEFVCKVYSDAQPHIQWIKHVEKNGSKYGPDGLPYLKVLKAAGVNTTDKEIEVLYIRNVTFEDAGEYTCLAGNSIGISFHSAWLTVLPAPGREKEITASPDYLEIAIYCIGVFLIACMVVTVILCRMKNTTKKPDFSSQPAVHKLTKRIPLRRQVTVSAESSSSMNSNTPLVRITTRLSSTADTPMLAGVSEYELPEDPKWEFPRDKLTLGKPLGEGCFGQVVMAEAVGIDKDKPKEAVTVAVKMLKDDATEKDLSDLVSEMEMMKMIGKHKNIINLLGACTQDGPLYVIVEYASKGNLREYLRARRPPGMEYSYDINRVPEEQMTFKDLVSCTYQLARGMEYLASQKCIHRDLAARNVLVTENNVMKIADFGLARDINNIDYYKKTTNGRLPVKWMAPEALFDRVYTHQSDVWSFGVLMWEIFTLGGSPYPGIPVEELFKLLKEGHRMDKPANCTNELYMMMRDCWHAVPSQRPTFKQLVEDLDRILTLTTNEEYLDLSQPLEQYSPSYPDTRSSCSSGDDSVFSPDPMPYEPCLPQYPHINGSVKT

The IC50 is the point on the concentration scale where inhibition reaches its midpoint. High values mean weaker potency in that assay, low ones greater potency in that assay. `C=CC(=O)N1C[C@@H](n2nc(C#Cc3cc4ncn(CC)c4cc3Cl)c3c(N)ncnc32)C[C@@H]1COC` [Example 92, 1-[(2R,4S)-4-[4-Amino-3-[2-(6-chloro-1-ethyl-1,3-benzodiazol-5-yl)ethynyl]pyrazolo[3,4-d]pyrimidin-1-yl]-2-(methoxymethyl)pyrrolidin-1-yl]prop-2-en-1-one]: the IC50 was at most 0.1 µM.

Consider `C=CC(=O)N1C[C@@H](n2cc(C#Cc3cc4ncn(CC)c4cc3Cl)c3c(N)ncnc32)C[C@@H]1COC` [Example 93, 1-[(2R,4S)-4-[4-Amino-5-[2-(6-chloro-1-ethyl-1,3-benzodiazol-5-yl)ethynyl]pyrrolo[2,3-d]pyrimidin-7-yl]-2-(methoxymethyl)pyrrolidin-1-yl]prop-2-en-1-one], for which the IC50 was at most 0.1 µM.

`C=CC(=O)N1C[C@@H](n2nc(C#Cc3c(F)cc4[nH]c(C)nc4c3F)c3c(N)ncnc32)C[C@@H]1COC` [Example 94, 1-[(2R,4S)-4-[4-Amino-3-[2-(4,6-difluoro-2-methyl-1H-1,3-benzodiazol-5-yl)ethynyl]pyrazolo[3,4-d]pyrimidin-1-yl]-2-(methoxymethyl)pyrrolidin-1-yl]prop-2-en-1-one] gave an IC50 of at most 0.1 µM.

`C=CC(=O)N1C[C@@H](n2nc(C#Cc3c(F)cc4nc(C)[nH]c4c3F)c3c(N)nccc32)C[C@@H]1COC` [Example 95, 1-[(2R,4S)-4-[4-Amino-3-[2-(4,6-difluoro-2-methyl-1H-1,3-benzodiazol-5-yl)ethynyl]pyrazolo[4,3-c]pyridin-1-yl]-2-(methoxymethyl)pyrrolidin-1-yl]prop-2-en-1-one] gave an IC50 of at most 0.1 µM.

With `C=CC(=O)N1C[C@@H](n2nc(C#Cc3cc4nc(C)n(C)c4cc3Cl)c3c(N)ncnc32)C[C@@H]1COC` [Example 96, 1-[(2R,4S)-4-[4-Amino-3-[2-(6-chloro-1,2-dimethyl-1,3-benzodiazol-5-yl)ethynyl]pyrazolo[3,4-d]pyrimidin-1-yl]-2-(methoxymethyl)pyrrolidin-1-yl]prop-2-en-1-one], the IC50 was at most 0.1 µM.

With `C=CC(=O)N1C[C@@H](n2nc(C#Cc3cc4nc(C)n(C)c4cc3Cl)c3c(N)nccc32)C[C@@H]1COC` [Example 97, 1-[(2R,4S)-4-[4-Amino-3-[2-(6-chloro-1,2-dimethyl-1,3-benzodiazol-5-yl)ethynyl]pyrazolo[4,3-c]pyridin-1-yl]-2-(methoxymethyl)pyrrolidin-1-yl]prop-2-en-1-one], the IC50 was at most 0.1 µM.

As to `C=CC(=O)N1C[C@@H](n2nc(C#Cc3cc4ncn(C)c4cc3Cl)c3c(N)nccc32)C[C@@H]1COC` [Example 98, 1-[(2R,4S)-4-[4-Amino-3-[2-(6-chloro-1-methyl-1,3-benzodiazol-5-yl)ethynyl]pyrazolo[4,3-c]pyridin-1-yl]-2-(methoxymethyl)pyrrolidin-1-yl]prop-2-en-1-one], the IC50 was at most 0.1 µM.

Turning to `C=CC(=O)N1C[C@@H](n2nc(C#Cc3cc4nc(C)[nH]c4cc3Cl)c3c(N)ncnc32)C[C@@H]1COC` [Example 99, 1-[(2R,4S)-4-[4-Amino-3-[2-(6-chloro-2-methyl-1H-1,3-benzodiazol-5-yl)ethynyl]pyrazolo[3,4-d]pyrimidin-1-yl]-2-(methoxymethyl)pyrrolidin-1-yl]prop-2-en-1-one], the IC50 is at most 0.1 µM.

`C=CC(=O)N1C[C@@H](n2nc(C#Cc3cc4nc(C)[nH]c4cc3Cl)c3c(N)nccc32)C[C@@H]1COC` [Example 100, 1-[(2R,4S)-4-[4-Amino-3-[2-(6-chloro-2-methyl-1H-1,3-benzodiazol-5-yl)ethynyl]pyrazolo[4,3-c]pyridin-1-yl]-2-(methoxymethyl)pyrrolidin-1-yl]prop-2-en-1-one] displayed an IC50 of at most 0.1 µM.

As for `C=CC(=O)N1C[C@@H](n2cc(C#Cc3cc4nc(C)n(C)c4cc3Cl)c3c(N)ncnc32)C[C@@H]1COC` [Example 101, 1-[(2R,4S)-4-[4-Amino-5-[2-(6-chloro-1,2-dimethyl-1,3-benzodiazol-5-yl)ethynyl]pyrrolo[2,3-d]pyrimidin-7-yl]-2-(methoxymethyl)pyrrolidin-1-yl]prop-2-en-1-one], the IC50 is at most 0.1 µM.

The molecule `C=CC(=O)N1C[C@@H](n2nc(C#Cc3c(Cl)cc4c(nc(C)n4C)c3F)c3c(N)ncnc32)C[C@@H]1COC` [Example 102, 1-((2R,4S)-4-(4-Amino-3-((6-chloro-4-fluoro-1,2-dimethyl-1H-benzo[d]imidazol-5-yl)ethynyl)-1H-pyrazolo[3,4-d]pyrimidin-1-yl)-2-(methoxymethyl)pyrrolidin-1-yl)prop-2-en-1-one] registered an IC50 of at most 0.1 µM.

`C=CC(=O)N1C[C@@H](n2nc(C#Cc3c(Cl)cc4c(nc(C)n4C)c3F)c3c(N)nccc32)C[C@@H]1COC` [Example 103, 1-((2R,4S)-4-(4-Amino-3-((6-chloro-4-fluoro-1,2-dimethyl-1H-benzo[d]imidazol-5-yl)ethynyl)-1H-pyrazolo[4,3-c]pyridin-1-yl)-2-(methoxymethyl)pyrrolidin-1-yl)prop-2-en-1-one] registered an IC50 of at most 0.1 µM.

The molecule `C=CC(=O)N1C[C@@H](n2nc(C#Cc3c(Cl)cc4c(ncn4C)c3F)c3c(N)ncnc32)C[C@@H]1COC` [Example 104, 1-[(2R,4S)-4-[4-Amino-3-[2-(6-chloro-4-fluoro-1-methyl-1,3-benzodiazol-5-yl)ethynyl]pyrazolo[3,4-d]pyrimidin-1-yl]-2-(methoxymethyl)pyrrolidin-1-yl]prop-2-en-1-one] showed an IC50 of at most 0.1 µM.

Regarding `C=CC(=O)N1C[C@@H](n2nc(C#Cc3c(Cl)cc4c(ncn4C)c3F)c3c(N)nccc32)C[C@@H]1COC` [Example 105, 1-[(2R,4S)-4-[4-Amino-3-[2-(6-chloro-4-fluoro-1-methyl-1,3-benzodiazol-5-yl)ethynyl]pyrazolo[4,3-c]pyridin-1-yl]-2-(methoxymethyl)pyrrolidin-1-yl]prop-2-en-1-one], the IC50 was at most 0.1 µM.

`C=CC(=O)N1C[C@@H](n2cc(C#Cc3c(Cl)cc4c(ncn4C)c3F)c3c(N)ncnc32)C[C@@H]1COC` [Example 106, 1-[(2R,4S)-4-[4-Amino-5-[2-(6-chloro-4-fluoro-1-methyl-1,3-benzodiazol-5-yl)ethynyl]pyrrolo[2,3-d]pyrimidin-7-yl]-2-(methoxymethyl)pyrrolidin-1-yl]prop-2-en-1-one] displayed an IC50 of at most 0.1 µM.

In the case of `C=CC(=O)N1C[C@@H](n2cc(C#Cc3c(F)cc4[nH]c(C)nc4c3F)c3c(N)ncnc32)C[C@@H]1COC` [Example 107, 1-[(2R,4S)-4-[4-Amino-5-[2-(4,6-difluoro-2-methyl-1H-1,3-benzodiazol-5-yl)ethynyl]pyrrolo[2,3-d]pyrimidin-7-yl]-2-(methoxymethyl)pyrrolidin-1-yl]prop-2-en-1-one], the IC50 was at most 0.1 µM.

Take `C=CC(=O)N1C[C@@H](n2nc(C#Cc3cc4ncn(C5CC5)c4cc3F)c3c(N)ncnc32)C[C@@H]1COC` [Example 108, 1-[(2R,4S)-4-[4-Amino-3-[2-(1-cyclopropyl-6-fluoro-1,3-benzodiazol-5-yl)ethynyl]pyrazolo[3,4-d]pyrimidin-1-yl]-2-(methoxymethyl)pyrrolidin-1-yl]prop-2-en-1-one]: the IC50 is at most 0.1 µM.

In the case of `C=CC(=O)N1C[C@@H](n2nc(C#Cc3cc4ncn(C5CC5)c4cc3F)c3c(N)nccc32)C[C@@H]1COC` [Example 109, 1-[(2R,4S)-4-[4-Amino-3-[2-(1-cyclopropyl-6-fluoro-1,3-benzodiazol-5-yl)ethynyl]pyrazolo[4,3-c]pyridin-1-yl]-2-(methoxymethyl)pyrrolidin-1-yl]prop-2-en-1-one], the IC50 is at most 0.1 µM.
